Changes are numbered by the printed parent chain. “And” between values parts separate entries of the source, which are not always exact repeats. Equal values may be shown once. Read-outs that look alike come from different tables or passages of the source.
Legend:
Nedd4 [1] = molecular target: T1, Nedd4 (Homo sapiens, UniProt P46934); experiment: biochemical
T1 sequence (P46934 1-900 isoform P46934-4): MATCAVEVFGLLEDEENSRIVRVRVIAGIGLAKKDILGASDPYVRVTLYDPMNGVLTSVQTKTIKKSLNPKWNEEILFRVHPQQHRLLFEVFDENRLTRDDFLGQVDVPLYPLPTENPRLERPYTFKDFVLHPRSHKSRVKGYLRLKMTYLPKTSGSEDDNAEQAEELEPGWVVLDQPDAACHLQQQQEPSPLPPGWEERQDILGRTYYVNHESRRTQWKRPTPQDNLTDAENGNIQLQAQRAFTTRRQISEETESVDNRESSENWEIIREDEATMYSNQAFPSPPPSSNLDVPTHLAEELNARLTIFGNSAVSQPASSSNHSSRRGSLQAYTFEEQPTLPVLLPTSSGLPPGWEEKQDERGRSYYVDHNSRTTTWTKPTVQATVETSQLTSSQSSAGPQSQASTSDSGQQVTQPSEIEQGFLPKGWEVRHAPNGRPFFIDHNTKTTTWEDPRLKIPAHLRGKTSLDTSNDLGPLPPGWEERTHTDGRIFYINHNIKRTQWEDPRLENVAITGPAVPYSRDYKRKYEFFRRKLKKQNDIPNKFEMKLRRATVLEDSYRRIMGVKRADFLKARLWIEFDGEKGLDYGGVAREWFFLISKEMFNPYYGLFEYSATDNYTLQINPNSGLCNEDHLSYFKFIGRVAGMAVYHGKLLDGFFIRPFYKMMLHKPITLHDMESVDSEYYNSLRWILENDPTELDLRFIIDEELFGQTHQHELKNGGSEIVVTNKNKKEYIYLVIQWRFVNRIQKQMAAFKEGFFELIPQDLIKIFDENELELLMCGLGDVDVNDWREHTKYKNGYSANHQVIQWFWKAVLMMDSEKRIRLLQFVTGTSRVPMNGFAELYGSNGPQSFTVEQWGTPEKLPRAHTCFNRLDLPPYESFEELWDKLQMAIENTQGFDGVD
Procedure: (§1) All time-resolved fluorescence resonance energy transfer (TR-FRET) auto-ubiquitination assays were performed in a final volume of 10 µL in PerkinElmer 384-well flat bottom white OptiPlate™ polystyrene microplates (PerkinElmer Cat. No. 6007290). […] A low concentration of NP-40 detergent (0.00063% v/v) was chosen for the Nedd4 auto-ubiquitination assay since this concentration yielded optimal terbium emission at 485 nm after 340 nm excitation (Supplementary Fig. 2). […] Reaction mixes containing all assay components except ATP-MgCl2 were preincubated with either library compounds dissolved in 1% DMSO or DMSO alone at RT for up to 2 h. To initiate the auto-ubiquitination reaction, 2 mM ATP-MgCl2 was added and incubated at 37 °C for 60–90 min. TR-FRET signal was measured in a Synergy 4 microplate reader (BioTek) using a 340/30 nm excitation filter and measuring the emission ratio using 485/20 nm and 528/20 nm emission filters. Fluorescence measurement was performed over a 400 µs window following a 100 µs delay post-excitation (Fig. 1).
(§2) All experiments were performed in triplicate (n = 3), and plotted values represent the average of three replicates with the standard deviation. TR-FRET signal refers to background values subtracted using control wells containing Tb-SA and Ub-FITC. Data were plotted using GraphPad 9.1.2 (GraphPad, La Jolla, CA) and fitted to a four-parameter sigmoidal dose–response curve. Where applicable, the dose–response was normalized and expressed as a percentage of auto-ubiquitination activity relative to the DMSO control.

WWP1 = WWP1 (Homo sapiens, UniProt Q9H0M0); conditions: 200 µM
Procedure: (§3) All time-resolved fluorescence resonance energy transfer (TR-FRET) auto-ubiquitination assays were performed in a final volume of 10 µL in PerkinElmer 384-well flat bottom white OptiPlate™ polystyrene microplates (PerkinElmer Cat. No. 6007290). […] Concentrations of Ub activating (E1) and conjugating (E2) enzymes and fluorophores were selected to provide sufficient TR-FRET signal intensity for compound screening without excessive reagent consumption (Supplementary Fig. 3). Reaction mixes containing all assay components except ATP-MgCl2 were preincubated with either library compounds dissolved in 1% DMSO or DMSO alone at RT for up to 2 h. To initiate the auto-ubiquitination reaction, 2 mM ATP-MgCl2 was added and incubated at 37 °C for 60–90 min. TR-FRET signal was measured in a Synergy 4 microplate reader (BioTek) using a 340/30 nm excitation filter and measuring the emission ratio using 485/20 nm and 528/20 nm emission filters. Fluorescence measurement was performed over a 400 µs window following a 100 µs delay post-excitation (Fig. 1). Similarly, TR-FRET assays were used to measure the auto-ubiquitination activity of two other Nedd4 family HECT E3 ligases (WWP1 and WWP2) using alternative optimized buffer and fluorophore concentrations to test Nedd4 inhibitor specificity (Supplementary Table 2).
For selectivity assays, we used C-terminal His-tagged WWP1 and WWP2 bound to Tb-labelled
anti-His-tag antibody and FITC-labelled ubiquitin.
Tb-SA 50 nM AntiHis-Tb 16.5 nM AntiHis-Tb 10 nM
NaCl 150 mM NaCl 0 mM NaCl 0 mM
TCEP 0.1 mM TCEP 0.1 mM TCEP 0.1 mM
DMSO 1 % DMSO 1 % DMSO 1 %
MgCl2 2 mM MgCl2 2 mM MgCl2 2 mM
ATP 2 mM ATP 2 mM ATP 2 mM

Nedd4 [2] = test system: Nedd4; parameters: method as in PMID 27979631; conditions: cited from earlier work
Nedd4 [3] = molecular target: T1, Nedd4
Procedure: as §1, §2

Nedd4 [4] = molecular target: T1, Nedd4; experiment: Western blotting for ubiquitination and biotinylated Nedd4; assay type: biochemical; conditions: 50 and 100 µM, 2 h at RT
Procedure: The auto-ubiquitination reactions were initiated with the addition of 2 mM ATP-MgCl2. Another control reaction was performed without the addition of ATP-MgCl2 for comparison (negative control).

Nedd4 C627A = molecular target: T2, Nedd4 C627A (Homo sapiens, UniProt P46934, C1046A); experiment: TR-FRET auto-ubiquitination assay of Nedd4 mutant C627A; assay type: biochemical; conditions: 2 h at RT, read-out: retention of uninhibited C627A activity
T2 construct: full length C182A, C627A, C867A, and C627A + C867A mutants; made in house; host or cells: E. coli BL21 (D3)-BirA
T2 sequence (P46934 1-900 isoform P46934-4 C627A): T1 sequence (P46934 1-900 isoform P46934-4) with C627A
Procedure: (§4) All time-resolved fluorescence resonance energy transfer (TR-FRET) auto-ubiquitination assays were performed in a final volume of 10 µL in PerkinElmer 384-well flat bottom white OptiPlate™ polystyrene microplates (PerkinElmer Cat. No. 6007290). […] A low concentration of NP-40 detergent (0.00063% v/v) was chosen for the Nedd4 auto-ubiquitination assay since this concentration yielded optimal terbium emission at 485 nm after 340 nm excitation (Supplementary Fig. 2). Concentrations of Ub activating (E1) and conjugating (E2) enzymes and fluorophores were selected to provide sufficient TR-FRET signal intensity for compound screening without excessive reagent consumption (Supplementary Fig. 3). Reaction mixes containing all assay components except ATP-MgCl2 were preincubated with either library compounds dissolved in 1% DMSO or DMSO alone at RT for up to 2 h. […] TR-FRET signal was measured in a Synergy 4 microplate reader (BioTek) using a 340/30 nm excitation filter and measuring the emission ratio using 485/20 nm and 528/20 nm emission filters. Fluorescence measurement was performed over a 400 µs window following a 100 µs delay post-excitation (Fig. 1).
(§5) All assays were carried out in triplicate with the data representing the mean with standard deviation. […] Auto-ubiquitination reactions were allowed to proceed for 1 h at 37 °C and then read through the TR-FRET assay described in the methods.

Nedd4 C867A = molecular target: T3, Nedd4 C867A (Homo sapiens, UniProt P46934, C1286A); experiment: TR-FRET auto-ubiquitination assay of Nedd4 mutant C867A; assay type: biochemical; conditions: 200 µM, 2 h at RT
T3 construct: full length C182A, C627A, C867A, and C627A + C867A mutants; made in house; host or cells: E. coli BL21 (D3)-BirA
T3 sequence (P46934 1-900 isoform P46934-4 C867A): T1 sequence (P46934 1-900 isoform P46934-4) with C867A
Procedure: as §4, §5

Nedd4 C627A + C867A = molecular target: T4, Nedd4 C627A + C867A (Homo sapiens, UniProt P46934, C1046A/C1286A); experiment: TR-FRET auto-ubiquitination assay of Nedd4 double mutant C627A + C867A; assay type: biochemical; conditions: 200 µM, 2 h at RT
T4 construct: full length C182A, C627A, C867A, and C627A + C867A mutants; made in house; host or cells: E. coli BL21 (D3)-BirA
T4 sequence (P46934 1-900 isoform P46934-4 C627A/C867A): T1 sequence (P46934 1-900 isoform P46934-4) with C627A, C867A
Procedure: as §4, §5

Nedd4 [5] = molecular target: T1, Nedd4; experiment: LC–MS/MS covalent adduction and site identification; assay type: binding; parameters: 30 µg of N-terminal His-tagged and C-terminal biotinylated Nedd4 (residue 1–900); made in house; host or cells: E. coli BL21 (D3)-BirA
Procedure: Samples were run on SDS-PAGE and stained with Coomassie Brilliant Blue R-250 (Thermo Fisher Scientific cat no. 20278). Gels were destained in water until the desired contrast was reached. The Nedd4 bands were cut and stored in 1% acetic acid at 4 °C until use. Samples were submitted to the SPARC Molecular Analysis Centre at the Hospital for Sick Children (Toronto, ON, CA) for LC–MS/MS analysis. Each gel band was cut into 3 pieces and digested with 0.8 µg pepsin, 0.6 µg trypsin and 0.6 µg chymotrypsin separately. The peptides obtained through the proteolytic digest were combined then lyophilized and resuspended in 0.1% formic acid. These samples were then subjected to MS/MS spectroscopy by an EASY-nLC 1200 nano-LC system + Thermo Scientific Orbitrap Fusion Lumos Tribrid mass spectrometer. MS data was analyzed using Scaffold PTM 4.0.1.

WWP2 = WWP2 (Homo sapiens, UniProt O00308); conditions: 200 µM
Procedure: as §3
For selectivity assays, we used C-terminal His-tagged WWP1 and WWP2 bound to Tb-labelled […]

[6] = 200 µM compound, 3 h incubation

WWP1, sequence (Q9H0M0 349-922): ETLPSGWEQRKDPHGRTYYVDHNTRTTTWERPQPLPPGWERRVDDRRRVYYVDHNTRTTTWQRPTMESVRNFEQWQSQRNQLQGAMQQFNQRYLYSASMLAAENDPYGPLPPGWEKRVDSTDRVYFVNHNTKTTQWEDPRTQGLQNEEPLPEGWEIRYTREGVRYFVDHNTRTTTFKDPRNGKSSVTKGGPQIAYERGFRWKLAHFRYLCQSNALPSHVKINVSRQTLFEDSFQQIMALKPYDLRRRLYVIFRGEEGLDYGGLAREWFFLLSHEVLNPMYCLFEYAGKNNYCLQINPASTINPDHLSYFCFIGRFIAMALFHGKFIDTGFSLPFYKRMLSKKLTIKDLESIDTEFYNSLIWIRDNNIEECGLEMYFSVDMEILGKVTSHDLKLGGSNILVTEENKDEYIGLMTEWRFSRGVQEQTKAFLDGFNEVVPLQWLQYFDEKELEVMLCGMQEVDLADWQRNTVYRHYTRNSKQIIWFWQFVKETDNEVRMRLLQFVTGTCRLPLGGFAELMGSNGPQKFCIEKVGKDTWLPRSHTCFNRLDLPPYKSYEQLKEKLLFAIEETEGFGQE
WWP2, sequence (O00308 whole entry): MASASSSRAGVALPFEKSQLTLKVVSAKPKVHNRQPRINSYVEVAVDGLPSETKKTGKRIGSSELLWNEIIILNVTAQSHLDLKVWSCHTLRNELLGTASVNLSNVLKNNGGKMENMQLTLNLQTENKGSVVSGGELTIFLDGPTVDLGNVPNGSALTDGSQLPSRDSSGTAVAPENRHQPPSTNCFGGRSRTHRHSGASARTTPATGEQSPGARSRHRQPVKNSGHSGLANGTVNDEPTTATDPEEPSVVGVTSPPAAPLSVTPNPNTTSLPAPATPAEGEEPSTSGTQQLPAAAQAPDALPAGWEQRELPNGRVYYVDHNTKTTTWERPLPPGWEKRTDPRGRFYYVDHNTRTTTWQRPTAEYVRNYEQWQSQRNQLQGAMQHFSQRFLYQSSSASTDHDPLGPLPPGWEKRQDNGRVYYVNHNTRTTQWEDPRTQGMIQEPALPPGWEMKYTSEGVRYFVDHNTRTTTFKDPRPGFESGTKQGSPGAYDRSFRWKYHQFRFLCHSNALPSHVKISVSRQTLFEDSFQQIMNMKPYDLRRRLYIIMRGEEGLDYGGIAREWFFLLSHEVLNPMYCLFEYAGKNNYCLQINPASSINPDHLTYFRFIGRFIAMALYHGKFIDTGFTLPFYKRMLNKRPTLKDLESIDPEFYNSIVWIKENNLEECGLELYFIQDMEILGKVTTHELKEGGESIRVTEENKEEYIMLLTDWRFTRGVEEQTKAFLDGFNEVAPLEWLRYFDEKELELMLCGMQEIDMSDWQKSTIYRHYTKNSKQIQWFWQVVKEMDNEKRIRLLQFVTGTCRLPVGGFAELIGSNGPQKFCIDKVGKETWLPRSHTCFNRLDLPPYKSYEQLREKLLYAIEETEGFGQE

## COC(=O)c1ccc2[nH]cc(C(=O)CCl)c2c1 [Compound 11]
Nedd4 [1]
  IC50: 96.8 µM and 100 µM

## COCCn1c(C)cc(C(=O)CCl)c1C [Compound 21]
Nedd4 [1]
  IC50: 143 µM and 140 µM

## Cc1cc(C(=O)CCl)c(C)[nH]1 [Compound 23]
WWP1
  inhibition: ~25%
Nedd4 [1]
  IC50: < 60 µM and 56 µM

## OCc1cn(Cc2ccccc2)c2ccccc12 [Compound 1-benzyl-I3C, 1-benzyl-I3C]
Nedd4 [2]; measured through an ELISA-based assay of Nedd4 activity
  IC50: 12.3 µM

## OCc1c[nH]c2ccccc12 [Compound 5, Indole-3-carbinol, reference compound]
Nedd4 [3]; 500 µM
  inhibition: 33%
Nedd4 [2]; previously reported
  IC50: 284 µM

## O=C(CCl)c1c[nH]c2ccccc12 [Compound 25]
WWP1
  inhibition: ~25%

## O=C(CCl)c1ccccn1 [Compound 81]
Nedd4 [4]
  effect on Nedd4 auto-ubiquitination by Western blot: complete loss of auto-ubiquitination
Nedd4 C627A
  activity at 200 µM: 30%
Nedd4 C867A
  change of C867A mutant activity on incubation with compound: No significant differences
Nedd4 C627A + C867A
  change of C627A + C867A mutant activity on incubation with compound: No significant differences
Nedd4 [3]; 200 µM
  inhibition: > 50%
Nedd4 [1]
  IC50: 31 µM and < 60 µM
Nedd4 [5]; 200 µM compound, 3 h at RT
  cysteine adduction sites confirmed by MS/MS: all three of the confirmed cysteine residues
Nedd4 [5]; [6]
  Occurrence Among Observed Peptides, Cysteine Site C182: 25/67
  Occurrence Among Observed Peptides, Cysteine Site C627: 8/12
  Occurrence Among Observed Peptides, Cysteine Site C867: 21/50
Nedd4 [5]; sheet "81 Mod Cys627", per peptide spectrum match, residues 639-657, C11 or C9 of the peptide
  Localization Probability of Compound 81 modification on cysteine (Cys627 peptide): 100% and 72%, 0%, 100% and 100%, 100%

## Cn1ccc(C(=O)CCl)c1 [Compound 24]
Nedd4 [1]
  IC50: 116 µM and 115 µM

## Cc1cc(C(=O)CCl)c(C)n1-c1ccccc1 [Compound 20]
Nedd4 [1]
  IC50: 244 µM and 240 µM

## Cn1cc(C(=O)CCl)c2ccccc21 [Compound 6]
Nedd4 [1]
  IC50: 174 µM and 170 µM

## Cc1cc(C(=O)CCl)c(C)n1CCC(C)C [Compound 29]
Nedd4 [1]
  IC50: 88 µM and 90 µM

## O=C(CCl)c1c[nH]c2ccncc12 [Compound 13]
WWP1
  inhibition: 47% and 72%
WWP2
  inhibition: 58% and 73%

## Cc1cc(C(=O)C(C)Cl)c(C)n1Cc1ccco1 (centres unmarked) [Compound 36]
Nedd4 [1]
  IC50: 113 µM and 110 µM

— PMC10520017, “Discovery of Nedd4 auto-ubiquitination inhibitors” (Scientific Reports, 2023)
